The values below come from patent US20240000754A1, “METHODS OF TREATMENT OF LIVER FAILURE” (GENFIT, priority 2020, published 2024).

Assay [1] has as its system rats with CCl4+LPS-induced ACLF. The experiment in a line: Example 9: CCl4+LPS-induced acute-on-chronic liver failure in rats. The class given is in vivo. The procedure: This study included 4 phases: • 1) Pre-sensitization phase: phenobarbital ([…]) (ref P5178-25G, Sigma-Aldrich) was added to the drinking water of 4-week-old male Sprague-Dawley rats (˜200 g) for 2 weeks prior to CCl4 administration • 2) Induction phase: hepatic severe fibrosis was induced by repeated oral tetrachlorure (CCl4) administrations (twice a week, increasing doses from 0.10 to 0.85 ml/kg, twice weekly) for 10 or 15 weeks, with the same protocol as the protocol described in example 8. • 3) Treatment phase: after 15 weeks of CCl4 administrations, gavage was stopped one week before LPS administration. […] A last dose (50 mg/kg) was administered 30 minutes just before ACLF induction. • 4) ACLF induction: LPS was administrated i.p. at 0.03 mg/kg.
LPS solution (Escherichia coli O111:64, Sigma-Aldrich, Germany) was prepared under a microbiological safety cabinet and was dissolved in phosphate buffer saline (PBS) at 15 μg/mL, aliquoted and frozen until the day of experiment. LPS was administered at 2 m L/kg to the rats.
38 male Sprague-Dawley rats (Janvier Labs, France) have been allocated to this study. Animals had ad libitum access to water and chow diet (ref E15000-04, Ssniff, Germany) all along the study. After 9 weeks of CCl4 administration, animals were randomly allocated to 2 groups according to ammonia and albumin plasmatic levels (in order to have similar means in the two groups).
ACLF was evaluated, at the end of the study, by biochemical analyses of hepatic and renal injury or function biomarkers.
At the end of the study, blood was collected by sublingual vein puncture under light isoflurane anesthesia and transferred to ethylenediamine tetra-acetic acid (EDTA), serum-gel, and lithium heparin tubes. EDTA and lithium heparin tubes containing blood were rapidly centrifuged and the plasma fraction was collected. Plasma aliquot of heparin lithium were snap frozen in liquid nitrogen and stored at −80° C., EDTA-plasma aliquots were stored at −20° C. and serum-gel tubes were kept at room temperature for 30 minutes, centrifuged and stored at −20° C.
Experimental results are expressed as mean±standard deviation and plotted as bar graphs. Comparison between groups was tested using a Student T test for all variables that follows a normal distribution (#: p<0.05; ##: p<0.01; ###: p<0.001). A Welsh test was applied in case of different variances between groups (3a: p<0.05; cm: p<0.01; man: p<0.001). A log-transformation was applied for plasma ALT and AST in all samples to obtain a normal data distribution. For other non-normally distributed variables, a non-parametric Mann-Whitney test was applied ($: p<0.05; $$: p<0.01; $$$: p<0.001). Differences to the Ctrl week 10 (W10) group are notified, if not otherwise specified.

For assay [2], the system named is rats with BDL+LPS-induced ACLF. The experiment in a line: Brain edema in BDL+LPS-induced ACLF in rats. In kind it is in vivo. Particulars: LPS 1 μg/kg i.p., NTZ 100 mg/kg gavage just before LPS, 3 hours post-LPS.
Experimental: BDL surgery was performed on 37 Sprague Dawley rats weighing approximately 270 g at Charles River laboratory (France). After anesthesia with isoflurane (Vetflurane, Alcyon, France), and cutaneous application of 2% lidocaine (Alcyon), a median laparotomy was performed to expose the liver and duodenum. The main bile duct was identified and dissected. After that, the bile duct was ligated in two parts: a first ligation was made in the middle of the bile duct, and the second ligation was made above the entrance of the pancreatic duct. The bile duct was then cut in the middle, to avoid recanalization.
The animals were then transferred to Genfit's animal facility (France) after a minimum of 5 days of recovery post-surgery. […] Unoperated animals were included in the study as healthy controls.
Twenty-two days after BDL surgery, acute decompensation was induced by intraperitoneal administration of 1 μg/kg LPS (Escherichia coli O111:64, Sigma-Aldrich, Germany). Four rats with BDL received phosphate buffer saline (PBS, Fisher Scientific, USA) instead of LPS to be used as BDL controls. Each animal was continuously observed following LPS injection in order to assess the degree of severity of the inflammatory response and pain. […]
For a further assay, the system named is HepG2 cells. Kind of assay: NH4Cl-induced mortality in HepG2 cells (CytoTox-Glow dead cell protease activity). In kind it is cell-based, human. Particulars: HepG2, NTZ 0-5 μM, 60 mM and 120 mM NH4Cl, 14 hours. On the procedure: After cell adherence (10 hours), cells were washed with PBS and were incubated in the presence of 0, 60, or 120 mM of NH4Cl (Fluka, France) in DMEM without L-Glutamine and FBS for 14 hours.
Cytotoxicity was measured using CytoTox-Glow™ assay (#G9291, Promega, USA). Briefly, 100 μL of reagent was added per well, and the plates were incubated in the dark at room temperature for 15 min. The CytoTox-Glow™ Assay is a luminescent cytotoxicity assay that measures the relative number of dead cells in cell populations. Luminescence was measured using a Spark microplate reader (#30086376, Tecan, USA). The amount of luminescence (RLU) directly correlates with the percentage of cells undergoing cytotoxic stress.

Assay [3] concerns rats with CCl4+LPS-induced ACLF. The experiment in a line: Example 8: renal function markers in CCl4+LPS-induced ACLF in rats. In kind it is in vivo. Particulars: 15 weeks CCl4 + LPS, NTZ 50 mg/kg BID 3 days, 24 h after LPS. The procedure: Cirrhosis decompensation often associates with alterations of kidney functions. […] Briefly, ACLF was induced by lipopolysaccharide (LPS) injection in rats with advanced liver fibrosis/cirrhosis induced by repeated carbon tetrachloride (CCl4) administrations for 15 weeks.
The protocol study included 4 phases: • 1) Pre-sensitization phase: phenobarbital (P5178, Sigma Aldrich) was added to the drinking water ([…]) of 32 4-week-old male Sprague-Dawley rats (˜200 gr, Janvier Lab) for 2 weeks in order to activate cytochrome enzymes that metabolize CCl4. • 2) Induction of liver fibrosis: chronic liver damages were induced by repeated (twice a week) oral CCl4 (ref: 289116, Sigma Aldrich; diluted in olive oil) administrations (increasing doses starting with 0.10 ml/kg, adding 0.05-0.10 ml/kg at each administration to reach 0.85 ml/kg at 7 weeks and thereafter) for up to 15 weeks, with final doses as follows:
• 3) Treatment phase: after 15 weeks of CCl4 administration, CCl4 gavage was stopped one week before LPS administration.
During the first hours following LPS administration, each animal was continuously observed in order to assess the degree of severity of the inflammatory response and pain. The appearance of the animal (change in fur, skin color), the degree of activity and vigilance (response to a stimulus, opening of the eyelids, activity . . . ), gait and attitude were monitored. Any animal showing evident signs of suffering and close to death was euthanized. […] All surviving animals were euthanized 24 h after LPS challenge for plasma and tissue analyses. […]
Renal injury was evaluated by plasma creatinine, urea and cystatin C concentrations. Plasma creatinine and urea concentrations were measured using the appropriate Randox kits (CR 8316, UR 8334, respectively) for Daytona plus automate (Randox, cat #BR 8377) using the manufacturer instructions. Plasma cystatin C concentration was determined by ELISA (Mouse/Rat Cystatin C Immunoassay Quantikine® ELISA, MSCTC0, R&D Systems).

Assay [4] has as its system rats with BDL+LPS-induced ACLF. Kind of assay: Kidney function in BDL+LPS-induced ACLF in rats. The class given is in vivo. Particulars: NTZ 100 mg/kg gavage, 3 hours post-LPS. The procedure: BDL surgery of rats and acute decompensation were performed as in the previous example.
Renal injury was evaluated by serum cystatin C concentrations determined by ELISA (Mouse/Rat Cystatin C Immunoassay Quantikine® ELISA, MSCTC0, R&D Systems).

Assay [5] deals with cirrhotic rats after LPS injection (ACLF). Kind of assay: ACLF model: LPS injection in TAA-cirrhotic rats. In kind it is in vivo. The procedure:
Male Sprague Dawley rats (175-200 g) (Janvier Labs, France) received intraperitoneal injections of thioacetamide (TAA) 3 times a week at the dose of 150 mg/kg during the first week and then at 200 mg/kg during 14 weeks to induce cirrhosis. Rats were stratified to treatment groups (n=5 per group) based on mean plasma levels of fibrosis markers (alpha-2 macroglobulin and Metallopeptidase Inhibitor 1 (TIMP1)) and liver function tests (plasma total bile acid and albumin) obtained from sublingual blood sampling.
After cirrhosis induction, rats received a single intraperitoneal injection of 0.05 mg/kg lipopolysaccharide (LPS from Escherichia coli O111:64, Sigma-Aldrich) to induce ACLF, one week after TAA administration was stopped. […] Plasma were obtained from sublingual blood sampling just before sacrifice.
The concentration of total bile acids was measured using the appropriate Randox kit for Daytona Plus automate (Randox, cat #BI 3863). In the presence of Thio-NAD, the enzyme 3-alpha hydroxysteroid dehydrogenase (3-a HSD) converts bile acids to 3-keto steroids and Thio-NADH. The reaction is reversible and 3-a HSD could convert 3-keto steroids and Thio-NADH to bile acids and Thio-NAD. In the presence of excess NADH, the enzyme cycling occurs efficiently and the rate of formation of Thio-NADH is determined by measuring specific change of absorbance at 405 nm.

The test system of assay [6] is hepatic transcriptome of mice. The experiment in a line: Hepatic transcriptomic analysis (RNA-seq) in CDAA/c diet-fed mice treated with NTZ. To be noted: NTZ 100 mg/kg/day versus CDAA/c alone, adjusted p=2.6×10-13. In kind it is in vivo.
Experimental: Liver injury was induced in 5-6 week-old male C57Bl/6 mice (Janvier Labs, France) by feeding them a cholesterol (1%) supplemented choline-deficient L-amino acid-defined diet (CDAA/c) (Ssniff, Germany) for 12 weeks (n=12). Some animals received from day 1 and throughout the study CDAA/c diet supplemented with NTZ (Interchim, France) (100 mg/kg/day) (n=8). Mice receiving choline supplemented L-amino acid-defined (CSAA) diet served as additional controls (n=6).
Total RNA was isolated from mice livers using Nucleospin® 96 RNA kit (ref 740709.4, Macherey Nagel, France) (n=5). Upon measurement of RNA samples concentration by Multiskan™ GO spectrophotometer (Thermo Scientific, France), the quality was assessed using 2100 Bioanalyser from Agilent (USA). […]
Then reads were aligned on the genome reference (Mus musculus GRCm38.90—GenBank assembly accession GCA_000001635.2) with rnacocktail using hisat2 v.2.1.0 as aligner with default parameters (Sahraeian et al. Nature communications 2017). […]
To identify differentially expressed genes (DE genes), we used R (version 3.4.3) and the DESEq2 library (v. 1.18.1). […] Briefly, the count matrix produced by FeatureCounts was analyzed by the DESeqDataSetFromMatrix( ) function followed by the DEseq( ) function from the DESeq2 library. […]
The subject of assay [7] is TAA induced cirrhosis in rats. Kind of assay: TAA-induced cirrhosis in rats: liver function and fibrosis. In kind it is in vivo. To be noted: 16 weeks TAA.
The test system of assay [8] is mice with acetaminophen (APAP) intoxication. Kind of assay: Acetaminophen-induced acute liver failure in mice. In kind it is in vivo. To be noted: APAP 300 mg/kg i.p., NTZ 50 mg/kg gavage 30 minutes before, 6 hours after APAP. On the procedure:
Acute liver failure was induced by administration of toxic dose of acetaminophen (APAP) in mice. After a 5-day acclimation period, 8 week-old C57BL/6J male mice (Janvier, France) were stratified into 3 groups of 10 mice according to their body weight. All mice were fasted overnight before the administration of 300 mg/kg APAP by intraperitoneal injection. […] Mice had free access to food and water right after APAP injection. Six hours after APAP injection, blood was collected in all mice on heparin by retro-orbital sinus punction under anesthesia. Liver injury was assessed by plasma aspartate aminotransferase (AST) determined using a Horiba Pentra 400 machine and related Pentra assay kit (Horiba France SAS, France). Animals were sacrificed 24 hours post-APAP administration by cervical dislocation, exsanguinated with saline and liver samples were collected and weighed.

The mark [9] stands for this setting: NTZ 30 mg/kg/day in diet for last 4 weeks, versus TAA control.

SMILES strings stand for the structures.

`CC(=O)Oc1ccccc1C(=O)Nc1ncc([N+](=O)[O-])s1` [NTZ, nitazoxanide]: the “Survival 24 h after LPS injection” value in [1] (rats, 15 weeks CCl4 + LPS 0.03 mg/kg i.p., NTZ 50 mg/kg BID 3 days, same in vehicle group) is recorded as 60%. For the same compound, the “Reduction of serum IFNγ” value in assay [1] (rats, CCl4 15 weeks and LPS, p=0.04) was 56%. In [1] (rats, CCl4 + LPS, NTZ 50 mg/kg BID 3 days, same in vehicle group (4/10 rats)), the “Mortality over 24 hours” value is on record as 40%. Also, the “Change of plasma urea” value in assay [1] (surviving rats 24 hours post-LPS, LPS-induced renal impairment, p=0.002) is recorded as −92%. Also, the “Change of plasma creatinine” value in assay [1] (surviving rats 24 hours post-LPS, LPS-induced renal impairment, p=0.009) is reported as −102%. Besides, the “Change of plasma cystatin C” value in assay [1] (surviving rats 24 hours post-LPS, LPS-induced renal impairment, p=0.02) is on record as −166%. Moreover, the “Reduction of plasma AST” value in assay [1] (surviving rats 24 hours post-LPS, NTZ versus vehicle, p=0.005) is 87%. For the same compound, the “Reduction of plasma ALT” value in assay [1] (surviving rats 24 hours post-LPS, NTZ versus vehicle, p=0.007) stood at 80%. Further, the “Reduction of total bilirubin” value in assay [1] (surviving rats 24 hours post-LPS, plasma, p=0.02) is 80%. For the same compound, the “Restoration of albumin production” value in assay [1] (surviving rats 24 hours post-LPS, plasma, p=0.04) is 95%. Further, the “Plasma GGT level” value in assay [1] (surviving rats 24 hours post-LPS, LPS vehicle 11.2 U/I) is on record as under 6.15 U/I. Moreover, in assay [2], the “Brain water (brain edema, % of water contained in brain)” value was “remarkably reduced”. The “Mortality rate (dead cell protease activity)” value with HepG2 cells is “reduced the mortality rate in a dose-dependent manner”. For the same compound, in assay [3], the Plasma creatinine result is “restoring creatinine, urea and cystatin C levels to the levels of the olive oil controls”; the “Plasma cystatin C” value is “restoring creatinine, urea and cystatin C levels to the levels of the olive oil controls”; the Plasma urea entry is “restoring creatinine, urea and cystatin C levels to the levels of the olive oil controls”. Moreover, the “Serum cystatin C” value in [4] was “drastically reduced cystatin C, almost to the level of healthy controls”. Besides, in assay [5] (TAA-cirrhotic rats after ACLF induction by LPS, versus vehicle), the “Circulating (plasma total) bile acids level” value was “reduced”. For the same compound, the “Delay of time to death” value in assay [5] (TAA-cirrhotic rats, LPS 0.05 mg/kg i.p., NTZ oral gavage 50 mg/kg/day BID 3 days plus last dose 30 minutes before LPS) is 1 h. Further, the “Induction of GluI expression” value in assay [6] came out at 1.6 fold. Further, the Collagen proportionate area in assay [7] (NTZ 30 mg/kg/day for last 4 weeks, TAA control 7.74±0.38%, p=0.77) was 7.53±0.64%. For the same compound, in assay [7] (setting [9]), the Plasma albumin result is given as “rescued” and the Plasma total bilirubin result is “drastically decreased”. The “Plasma AST” value in assay [8] is given as “greatly reduced AST to a level similar to that with NAC”.
